Results taken from patent US20260097091A1, “ADMINISTRATION OF GLUTATHIONE TRISULFIDE TO AMELIORATE PERIPHERAL NEUROPATHY” (The General Hospital Corporation, priority 2022, published 2026).

Legend:
[1] = tissue distribution of orally administered ^34S-labeled GSSSG by LC-MS/MS; format: in vivo, mice; conditions: 2 hours after oral ^34S-labelled GSSSG 50 mg/kg; mice
Experimental: To determine the tissue distribution of orally-administered GSSSG, ^34S-labelled GSSSG was administered by gavage to each of four mice. ^34S-labelled GSSSG was synthesized and provided by Kyowa Hakko Bio CO., LTD. Two hours after a single dose of ^34S-GSSSG, DRG, lumber spinal cord, brain, liver, and plasma were obtained and snap frozen for later analysis.
We examined whether administrated GSSSG via oral gavage reaches peripheral nervous system using liquid chromatography with tandem mass spectrometry (LC-MS/MS). Fifty mg/kg of ^34S-labeled GSSSG (in which the middle sulfur, that is a sulfane sulfur, was replaced to ^34S; G-^32S-^34S-^32S-G) was orally administered to mice. Two hours after administration, plasma and tissue from liver, brain, lumbar spinal cord, and lumbar DRG (L1 to L6) were collected and immediately frozen at −80° C. Tissues were homogenized with 5 mM of β-(4-hydroxyphenyl)ethyl iodoacetamide (HPE-IAM) (Santa Cruz, Cat No. SC-473766) and incubated for 20 minutes at 37° C. to promote HPE-IAM reaction that stabilizes persulfide residues. Proteins were removed by centrifugation at 15,000 g for 10 minutes at 4° C., and total protein concentration was measured by BCA assay. The supernatant was diluted by 0.1% formic acid for LC-MS/MS analysis. The amount of ^34S-labeled GSSSG was quantified in selective reaction monitoring (SRM) with precursor ion (647.14 m/z), product ion (389.1 m/z), and HCD (21 v) and normalized by protein concentration. The ratio of ^34S-labeled reactive sulfur species to endogenous (^32S) reactive sulfur species (GSSH, CysSSH, and CysSSSCys) were also calculated from their peak area measured by Dionex UltiMate 3000 RS UPLC-Orbitrap Exploris 480 mass spectrometer (Thermo Scientific Scientific, Waltham, MA, USA). In brief, samples were subjected to the UPLC system with a Hypersil Gold C-18 (100×2.1 mm, 3.0 μm, Thermo Fisher Scientific) column and they were eluted by using a linear methanol gradient of the mobile phase (0-90%, 15 minutes) in the presence of 0.1% formic acid at a flow rate of 0.2 ml/minutes at 40 degrees. The raw data were obtained by Compound Discoverer software 3.3. Molecular weight of reactive sulfur species combined with HPE-IAM were reported in previous studies.

[2] = system: primary cortical neurons; assay: axonal degeneration in primary cortical neurons; format: cell-based, mice; conditions: 10 μM of GSSSG

N[C@@H](CCC(=O)N[C@@H](CSSSC[C@H](NC(=O)CC[C@H](N)C(=O)O)C(=O)NCC(=O)O)C(=O)NCC(=O)O)C(=O)O [GSSSG, glutathione trisulfide]
plasma level of GSSSG [1]: 58 nM | axonal degeneration in primary cortical neurons [2]: prevented axonal degeneration
